Experimental data: patent US20120071401A1, “AMYLIN AGONIST COMPOUNDS FOR ESTROGEN-DEFICIENT MAMMALS” (Amylin Pharamaceuticals, Inc., priority 2009, published 2012)

Assays:
[1] = human subjects; cited from earlier work
in vivo = conditions: rat, 50 ug/kg/d; for level at 672 h: Plasma amylin
Description: Amylin infusion to lean or obese, diabetic ZDF rats. Obese diabetic female ZDF rats (Charles River Laboratories) were maintained on 32% kcal/fat purified diet for approximately 6 weeks, and at 10 weeks of age were sorted into two weight-matched groups. One group was subjected to a bilateral ovariectomy (n=12) or SHAM surgery (n=12). Two weeks post-surgery rats were implanted with a single osmotic minipump (Alzet model 2ML4, Durect Corporation) delivering either vehicle or rat amylin (50 ug/kg/d) to half of each surgical group for 28 days. Lean (mean body weight 226±3 g) ZDF controls (Charles River) maintained on standard laboratory rodent chow (LM-485, 5% kcal/fat; Harlan Teklad) were sorted into weight-matched groups and implanted with a single osmotic minipump (Alzet model 2ML4, Durect Corporation) delivering either vehicle (n=9) or rat amylin (50 ug/kg/d; n=9) for 28 days. For both studies food intake and body weight were monitored weekly, and body composition was assessed at baseline and termination using NMR (Echo Medical Systems). After 28 days rats were euthanized by isoflurane overdose and cardiac blood collected.
Plasma metabolite analyses. Terminal plasma insulin (Crystal Chem Inc., Downer's Grove, Ill.), and leptin, total adiponectin and total ghrelin (Millipore, Billerica, […].) levels were measured using commercially available ELISA. Plasma glucose, triglyceride, and total cholesterol levels were measured using an Olympus bioanalyzer (Olympus America Diagnostics, Center Valley, Pa.). Plasma amylin levels were measured using an internal IEMA.

[2] = DIO rats, leptin dose alone; cited from earlier work

Molecule: CC[C@H](C)[C@H](NC(=O)[C@@H]1CCCN1C(=O)CNC(=O)[C@H](Cc1ccccc1)NC(=O)[C@H](CC(N)=O)NC(=O)[C@H](CC(N)=O)NC(=O)[C@H](CO)NC(=O)[C@H](CO)NC(=O)[C@H](Cc1c[nH]cn1)NC(=O)[C@@H](NC(=O)[C@H](CC(C)C)NC(=O)[C@H](Cc1ccccc1)NC(=O)[C@H](CC(N)=O)NC(=O)[C@H](C)NC(=O)[C@H](CC(C)C)NC(=O)[C@H](CCCNC(=N)N)NC(=O)[C@H](CCC(N)=O)NC(=O)[C@@H](NC(=O)[C@H](C)NC(=O)[C@@H]1CSSC[C@H](NC(=O)[C@@H](N)CCCCN)C(=O)N[C@@H](CC(N)=O)C(=O)N[C@@H]([C@@H](C)O)C(=O)N[C@@H](C)C(=O)N[C@@H]([C@@H](C)O)C(=O)N1)[C@@H](C)O)C(C)C)C(=O)N[C@@H](CC(C)C)C(=O)N1CCC[C@H]1C(=O)N1CCC[C@H]1C(=O)N[C@H](C(=O)N[C@@H](CC(N)=O)C(=O)N[C@H](C(=O)NCC(=O)N[C@@H](CO)C(=O)N[C@@H](CC(N)=O)C(=O)N[C@H](C(=O)N[C@@H](Cc1ccc(O)cc1)C(N)=O)[C@@H](C)O)C(C)C)[C@@H](C)O [pramlintide]
- Food intake and body weight [1]: reduced food intake and body weight

Molecule: CC(C)C[C@H](NC(=O)[C@H](CC(N)=O)NC(=O)[C@H](CC(N)=O)NC(=O)[C@H](CO)NC(=O)[C@H](CO)NC(=O)[C@H](CCCNC(=N)N)NC(=O)[C@@H](NC(=O)[C@H](CC(C)C)NC(=O)[C@H](Cc1ccccc1)NC(=O)[C@H](CC(N)=O)NC(=O)[C@H](C)NC(=O)[C@H](CC(C)C)NC(=O)[C@H](CCCNC(=N)N)NC(=O)[C@H](CCC(N)=O)NC(=O)[C@@H](NC(=O)[C@H](C)NC(=O)[C@@H]1CSSC[C@H](NC(=O)[C@@H](N)CCCCN)C(=O)N[C@@H](CC(N)=O)C(=O)N[C@@H]([C@@H](C)O)C(=O)N[C@@H](C)C(=O)N[C@@H]([C@@H](C)O)C(=O)N1)[C@@H](C)O)C(C)C)C(=O)NCC(=O)N1CCC[C@H]1C(=O)N[C@H](C(=O)N[C@@H](CC(C)C)C(=O)N1CCC[C@H]1C(=O)N1CCC[C@H]1C(=O)N[C@H](C(=O)N[C@@H](CC(N)=O)C(=O)N[C@H](C(=O)NCC(=O)N[C@@H](CO)C(=O)N[C@@H](CC(N)=O)C(=O)N[C@H](C(=O)N[C@@H](Cc1ccc(O)cc1)C(N)=O)[C@@H](C)O)C(C)C)[C@@H](C)O)C(C)C [rat amylin]
- level at 672 h (in vivo; ZDF (lean controls)): 3.43 ± 0.392 ng/mL
- Plasma amylin (in vivo; female, ZDF (obese diabetic), 672 h): 3279 ± 430 pg/mL
- level at 672 h (in vivo; female, ZDF (obese diabetic)): 3.45 ± 0.401 ng/mL

B1: leptin (protein, UniProt P50596 22-167, looked up)
Leptin: VPIHKVQDDTKTLIKTIVTRINDISHTQSVSARQRVTGLDFIPGLHPILSLSKMDQTLAVYQQILTSLPSQNVLQIAHDLENLRDLLHLLAFSKSCSLPQTRGLQKPESLDGVLEASLYSTEVVALSRLQGSLQDILQQLDLSPEC
notes: long term signal of adiposity; acts synergistically with amylin in DIO rats
- Reducing body weight [2]: ineffective
